Measured values taken from patent US20250367322A1, “NUCLEOBASE EDITING SYSTEM AND METHOD OF USING SAME FOR MODIFYING NUCLEIC ACID SEQUENCES” (ReNAgade Therapeutics Management, Inc., priority 2022, published 2025).

B1: TnpB (SEQ ID NO: 1): "TnpB (SEQ ID NO: 1) endonuclease edits human EMX1 locus (hEMX1) in HEK293T cells" (protein)
chain: MIRNKAFVVRLYPNAAQTELINRTLGSARFVYNHFLARRIAAYKESGKGLTYGQTSSELTLLKQAEETSWLSEVDKFALQNSLKNLETAYKNFFRTVKQSGKKVGFPRFRKKRTGESYRTQFTNNNIQIGEGRLKLPKLGWVKTKGQQDIQGKILNVTVRRIHEGHYEASVLCEVEIPYLPAAPKFAAGVDVGIKDFAIVTDGVRFKHEQNPKYYRSTLKRLRKAQQTLSRRKKGSARYGKAKTKLARIHKRIVNKRQDFLHKLTTSLVREYEIIGTEHLKPDNMRKNRRLALSISDAGWGEFIRQLEYKAAWYGRLVSKVSPYFPSSQLCHDCGFKNPEVKNLAVRTWTCPNCGETHDRDENAALNIRREALVAAGISDTLNAHGGYVRPASAGNGLRSENHATLVV
modifications: Deinococcus radiodurans

Tests used:
[1] = tested on: Mus musculus EMX1 locus (mEMX1); experiment: In vivo TnpB editing of mouse EMX1 locus in liver, delivered with an LNP (indels detected by NGS); conditions: TnpB delivered with an LNP (Table (III) Compound C59), FIG. 7
human EMX1 locus (hEMX1) = experiment: TnpB endonuclease editing of human EMX1 locus in HEK293T cells (indels detected by NGS); assay type: cell-based; conditions: FIG. 5

Molecule | editing of Mus musculus EMX1 locus (mEMX1) in liver in vivo [1] | editing of human EMX1 locus (hEMX1) (human EMX1 locus (hEMX1))
CCCCCC(CCCCC)CCOC(=O)CCCCCCCC(CCCCCCCC(=O)OC1CC2CCCC1C2)OC(=O)CCCN(C)C (centres unmarked) [Compound C59] | edits Mus musculus EMX1 locus (mEMX1) in liver in vivo | 
B1 |  | edits human EMX1 locus
